Like-named read-outs stand apart in the source and are kept apart here. Starred links: 1 amine or outer side, 2 acyl side, 3 side chain; linkers in the order of their positions; H or OH if unused. Positions of bridges follow the written chain, without caps; N, C: chain ends. Non-standard residues stand in square brackets, D forms with d. Residues, ends and D or L forms follow the SMILES beside them. *: point of attachment. Phe(3-NHCO(CH2)3SO2NH2) = N[C@@H](Cc1cccc(NC(=O)CCCS(N)(=O)=O)c1)C(=O)O; X3 = O=C(O)CN1CCN(CC(=O)O)CCN(CC(=O)NCCCOCCOCCOCCCN*)CCN(CC(=O)O)CC1; X38 = O=C(Cc1cc(=O)[nH][nH]c1=O)Nc1cccc(C[C@H](N[*:1])C(=O)[*:2])c1; X24 = NS(=O)(=O)c1ccc(C(=O)Nc2cccc(C[C@H](N[*:1])C(=O)[*:2])c2)cc1; DOTA = O=C(O)CN1CCN(CC(=O)O)CCN(CC(=O)*)CCN(CC(=O)O)CC1; X15 = O=C(O)COCC(=O)Nc1cccc(C[C@H](N[*:1])C(=O)[*:2])c1; Propanoyl(3-SO2NH2) = NS(=O)(=O)CCC(=O)*; Phe(4-NH2) = Nc1ccc(C[C@H](N)C(=O)O)cc1; mXylylene = c1cc(C[*:1])cc(C[*:2])c1; dOrn(Me2) = CN(C)CCC[C@@H](N)C(=O)O; X2 = O=C(CN1CCC(N[*:1])CC1)[*:2]; X26 = NS(=O)(=O)c1cccc(C(=O)*)c1; X1 = O=C(CN1CCN([*:1])CC1)[*:2]; Suc = O=C(CCC(=O)[*:2])[*:1]; Pip = O=C(O)[C@@H]1CCCCN1; dNMeA = CN[C@H](C)C(=O)O; Dap = NC[C@H](N)C(=O)O
Assays:
[1] = target: T1, CAIX-expressing human HT-29 colorectal cancer cells (Homo sapiens, UniProt Q16790); assay: FACS binding assay (IC50 determination, competition with tracer 3BP-2776 or 3BP-4149); details: 4° C., 1 hour, read-out: pIC50 category (activity) (converted)
T1 construct: CAIX-expressing human HT-29 colorectal cancer cells; host or cells: HT-29 human colorectal cancer cells
How it was run: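 HT-29 cells in FACS buffer (PBS, 1% FCS) at 500.000 cells/ml were exposed to compounds competing with a labelled tracer, with biotinylated compounds detected by 1 μg/mL APC-streptavidin for 30 min on ice. APC/Cy5 median fluorescence was read by flow cytometry and IC50 derived by 4PL fit.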

[2] = target: T2, human carbonic anhydrase IX (hCAIX-Fc) (Homo sapiens, UniProt Q16790); assay: Surface plasmon resonance assay with hCAIX-Fc; assay type: binding; details: 25° C.; for t1/2 category (activity): SPR dissociation half-life, hCAIX-Fc; for Kd: SPR, hCAIX-Fc captured, read-out: pKD category (activity) (converted)
T2 construct: purchased SinoBliological (Sino Biological) 10107-H02H

[3] = FACS binding assay, HT-29 cells, competition with tracer 3BP-4149 (3 nM, Cy5-labeled)
[4] = FACS binding assay, HT-29 cells, competition with tracer 3BP-2776 (10 nM, biotin-labeled)
[5] = FACS competition on HT-29 cells, Tracer ID 3BP-2776 (10 nM, biotin-labeled)

Row | SMILES | IC50 [1, 3] [nM] | t1/2 category (activity) [2] | Kd [2] [nM] | IC50 [1, 4] [nM] | IC50 [1, 5] [nM]
1 | CC(C)C[C@@H]1NC(=O)[C@H](Cc2cccc(NC(=O)c3ccc(S(N)(=O)=O)cc3)c2)NC(=O)[C@H](CC(=O)O)NC(=O)[C@H]2CCCN2C(=O)[C@H](CCC(=O)O)NC(=O)[C@@H](NC(=O)[C@H](Cc2ccc(O)cc2)NC(=O)[C@@H](NC(=O)CN2CCC(NC(=O)CN3CCN(CC(=O)O)CCN(CC(=O)O)CCN(CC(=O)O)CC3)CC2)C(C)C)CSCc2cccc(c2)CSC[C@@H](C(N)=O)NC(=O)[C@H](CO)NC(=O)[C@H](Cc2c[nH]c3ccccc23)NC(=O)[C@H]([C@@H](C)O)NC1=O [3BP-4405] ({DOTA}-[X2]VYCE[dP]D[X24]LTWSC-NH2; linker 4-13 via mXylylene) | < 10 | A (t1/2>15.0 minutes) | < 10 |  | 
2 | CC(C)C[C@@H]1NC(=O)[C@H](Cc2c[nH]c3ccccc23)NC(=O)[C@H](CC(=O)O)NC(=O)[C@H]2CCCN2C(=O)[C@H](CCC(=O)O)NC(=O)[C@@H]2CSCc3cccc(c3)CSC[C@@H](C(N)=O)NC(=O)[C@H](CNC(=O)CC[C@H](NC(=O)[C@@H](NC(=O)CN3CCC(NC(=O)CN4CCN(CC(=O)O)CCN(CC(=O)O)CCN(CC(=O)O)CC4)CC3)C(C)C)C(=O)N2)NC(=O)[C@H](Cc2c[nH]c3ccccc23)NC(=O)[C@H]([C@@H](C)O)NC1=O [3BP-4175] ({DOTA}-[X2]VECE[dP]DWLTW[Dap]C-NH2; lactam 3-12; linker 4-13 via mXylylene) |  | A (t1/2>15.0 minutes) | < 10 | < 10 | 
3 | CC(C)C[C@@H]1NC(=O)[C@H](Cc2ccc(NC(=O)c3cccc(S(N)(=O)=O)c3)cc2)NC(=O)[C@H](CC(=O)O)NC(=O)[C@H]2CCCN2C(=O)[C@H](CCC(=O)O)NC(=O)[C@@H](NC(=O)[C@H](Cc2ccc(O)cc2)NC(=O)[C@@H](NC(=O)CN2CCC(NC(=O)CN3CCN(CC(=O)O)CCN(CC(=O)O)CCN(CC(=O)O)CC3)CC2)C(C)C)CSCc2cccc(c2)CSC[C@@H](C(N)=O)NC(=O)[C@H](CO)NC(=O)[C@H](Cc2c[nH]c3ccccc23)NC(=O)[C@H]([C@@H](C)O)NC1=O [3BP-4408] ({DOTA}-[X2]VYCE[dP]D[Phe(4-NH2)](X26)LTWSC-NH2; linker 4-13 via mXylylene) | < 10 | A (t1/2>15.0 minutes) | < 10 |  | 
4 | CC(=O)N[C@H](C(=O)N[C@@H](Cc1ccc(O)cc1)C(=O)N[C@H]1CSCc2cccc(c2)CSC[C@@H](C(N)=O)NC(=O)[C@H](C)NC(=O)[C@H](Cc2c[nH]c3ccccc23)NC(=O)[C@H]([C@@H](C)O)NC(=O)[C@H](CC(C)C)NC(=O)[C@H](Cc2c[nH]c3ccccc23)NC(=O)[C@H](CC(=O)O)NC(=O)[C@@H](C)N(C)C(=O)[C@H](CCC(=O)O)NC1=O)C(C)C [3BP-3281] (Ac-VYCE[dNMeA]DWLTWAC-NH2; linker 3-12 via mXylylene) |  |  | < 10 |  | < 10
5 | CC(C)C[C@@H]1NC(=O)[C@H](Cc2cccc(NC(=O)COCC(=O)O)c2)NC(=O)[C@H](CC(=O)O)NC(=O)[C@H]2CCCN2C(=O)[C@H](CCC(=O)O)NC(=O)[C@@H](NC(=O)[C@H](Cc2ccc(O)cc2)NC(=O)[C@@H](NC(=O)CN2CCC(NC(=O)CN3CCN(CC(=O)O)CCN(CC(=O)O)CCN(CC(=O)O)CC3)CC2)C(C)C)CSCc2cccc(c2)CSC[C@@H](C(N)=O)NC(=O)[C@H](CO)NC(=O)[C@H](Cc2c[nH]c3ccccc23)NC(=O)[C@H]([C@@H](C)O)NC1=O [3BP-4368] ({DOTA}-[X2]VYCE[dP]D[X15]LTWSC-NH2; linker 4-13 via mXylylene) | 10 to 79.4 | C (t1/2 between 2.1 and 5.0 minutes) | < 10 |  | 
6 | CC(C)C[C@@H]1NC(=O)[C@H](Cc2c[nH]c3ccccc23)NC(=O)[C@H](CC(=O)O)NC(=O)[C@@H](CCCN(C)C)NC(=O)[C@H](CCC(=O)O)NC(=O)[C@@H](NC(=O)[C@H](Cc2ccc(O)cc2)NC(=O)[C@@H](NC(=O)CN2CCC(NC(=O)CN3CCN(CC(=O)O)CCN(CC(=O)O)CCN(CC(=O)O)CC3)CC2)C(C)C)CSCc2cccc(c2)CSC[C@@H](C(N)=O)NC(=O)[C@H](CO)NC(=O)[C@H](Cc2c[nH]c3ccccc23)NC(=O)[C@H]([C@@H](C)O)NC1=O [3BP-4097] ({DOTA}-[X2]VYCE[dOrn(Me2)]DWLTWSC-NH2; linker 4-13 via mXylylene) |  |  | < 10 | < 10 | 
7 | CC(C)C[C@@H]1NC(=O)[C@H](Cc2c[nH]c3ccccc23)NC(=O)[C@H](CC(=O)O)NC(=O)CNC(=O)[C@H](CCC(=O)O)NC(=O)[C@@H](NC(=O)[C@H](Cc2ccc(O)cc2)NC(=O)[C@@H](NC(=O)CCC(=O)NCCCOCCOCCOCCCNC(=O)CN2CCN(CC(=O)O)CCN(CC(=O)O)CCN(CC(=O)O)CC2)C(C)C)CSCc2cccc(c2)CSC[C@@H](C(N)=O)NC(=O)[C@H](C)NC(=O)[C@H](Cc2c[nH]c3ccccc23)NC(=O)[C@H]([C@@H](C)O)NC1=O [3BP-3272] ({X3-Suc}-VYCEGDWLTWAC-NH2; linker 3-12 via mXylylene) |  | C (t1/2 between 2.1 and 5.0 minutes) | < 10 |  | < 10
8 | CC(C)C[C@@H]1NC(=O)[C@H](Cc2ccc(NC(=O)CCS(N)(=O)=O)cc2)NC(=O)[C@H](CC(=O)O)NC(=O)[C@H]2CCCN2C(=O)[C@H](CCC(=O)O)NC(=O)[C@@H](NC(=O)[C@H](Cc2ccc(O)cc2)NC(=O)[C@@H](NC(=O)CN2CCC(NC(=O)CN3CCN(CC(=O)O)CCN(CC(=O)O)CCN(CC(=O)O)CC3)CC2)C(C)C)CSCc2cccc(c2)CSC[C@@H](C(N)=O)NC(=O)[C@H](CO)NC(=O)[C@H](Cc2c[nH]c3ccccc23)NC(=O)[C@H]([C@@H](C)O)NC1=O [3BP-4400] ({DOTA}-[X2]VYCE[dP]D[Phe(4-NH2)](Propanoyl(3-SO2NH2))LTWSC-NH2; linker 4-13 via mXylylene) | < 10 | A (t1/2>15.0 minutes) | < 10 |  | 
9 | CC(C)C[C@@H]1NC(=O)[C@H](Cc2c[nH]c3ccccc23)NC(=O)[C@H](CC(=O)O)NC(=O)[C@H]2CCCN2C(=O)[C@H](CCC(N)=O)NC(=O)[C@@H](NC(=O)[C@H](Cc2ccc(O)cc2)NC(=O)[C@@H](NC(=O)CN2CCC(NC(=O)CN3CCN(CC(=O)O)CCN(CC(=O)O)CCN(CC(=O)O)CC3)CC2)C(C)C)CSCc2cccc(c2)CSC[C@@H](C(N)=O)NC(=O)[C@H](CO)NC(=O)[C@H](Cc2c[nH]c3ccccc23)NC(=O)[C@H]([C@@H](C)O)NC1=O [3BP-4104] ({DOTA}-[X2]VYCQ[dP]DWLTWSC-NH2; linker 4-13 via mXylylene) |  | B (t1/2 between 5.1 and 15.0 minutes) | < 10 | < 10 | 
10 | CC(C)C[C@@H]1NC(=O)[C@H](Cc2cccc(NC(=O)CCCS(N)(=O)=O)c2)NC(=O)[C@H](CC(=O)O)NC(=O)[C@H]2CCCN2C(=O)[C@H](CCC(=O)O)NC(=O)[C@@H](NC(=O)[C@H](Cc2ccc(O)cc2)NC(=O)[C@@H]2CCCCN2C(=O)CN2CCN(CC(=O)O)CCN(CC(=O)O)CCN(CC(=O)O)CC2)CSCc2cccc(c2)CSC[C@@H](C(N)=O)NC(=O)[C@H](CO)NC(=O)[C@H](Cc2c[nH]c3ccccc23)NC(=O)[C@H]([C@@H](C)O)NC1=O [3BP-4456] ({DOTA}-[Pip]YCE[dP]D[Phe(3-NHCO(CH2)3SO2NH2)]LTWSC-NH2; linker 3-12 via mXylylene) | 10 to 79.4 | A (t1/2>15.0 minutes) | < 10 |  | 
11 | CC(C)C[C@@H]1NC(=O)[C@H](Cc2cccc(NC(=O)Cc3cc(=O)[nH][nH]c3=O)c2)NC(=O)[C@H](CC(=O)O)NC(=O)[C@H]2CCCN2C(=O)[C@H](CCC(=O)O)NC(=O)[C@@H](NC(=O)[C@H](Cc2ccc(O)cc2)NC(=O)[C@@H](NC(=O)CN2CCC(NC(=O)CN3CCN(CC(=O)O)CCN(CC(=O)O)CCN(CC(=O)O)CC3)CC2)C(C)C)CSCc2cccc(c2)CSC[C@@H](C(N)=O)NC(=O)[C@H](CO)NC(=O)[C@H](Cc2c[nH]c3ccccc23)NC(=O)[C@H]([C@@H](C)O)NC1=O [3BP-4322] ({DOTA}-[X2]VYCE[dP]D[X38]LTWSC-NH2; linker 4-13 via mXylylene) | 10 to 79.4 | B (t1/2 between 5.1 and 15.0 minutes) | < 10 |  | 
12 | CC(C)C[C@@H]1NC(=O)[C@H](Cc2ccc(NC(=O)CCS(N)(=O)=O)cc2)NC(=O)[C@H](CC(=O)O)NC(=O)[C@H]2CCCN2C(=O)[C@H](CCC(=O)O)NC(=O)[C@@H]2CSCc3cccc(c3)CSC[C@@H](C(N)=O)NC(=O)[C@H](CNC(=O)C[C@H](NC(=O)CN3CCN(C(=O)CN4CCN(CC(=O)O)CCN(CC(=O)O)CCN(CC(=O)O)CC4)CC3)C(=O)N2)NC(=O)[C@H](Cc2c[nH]c3ccccc23)NC(=O)[C@H]([C@@H](C)O)NC1=O [3BP-4498] ({DOTA}-[X1]DCE[dP]D[Phe(4-NH2)](Propanoyl(3-SO2NH2))LTW[Dap]C-NH2; lactam 2-11; linker 3-12 via mXylylene) | 10 to 79.4 | A (t1/2>15.0 minutes) | < 10 |  | 

Source: US20250339569A1, “CARBONIC ANHYDRASE IX LIGANDS” (priority 2021, published 2025)
